Values quoted from earlier work as cited in patent US20240148815A1, “FOOD SUPPLEMENT TO PROMOTE BODY WEIGHT LOSS” (NGN HEALTHCARE-NEW GENERATION NUTRACEUTICALS S.R.L., priority 2021, published 2024).
Counter-ions that a name gives are not always drawn.

Key:
overweight women = conditions: 4 weeks, calorie-reduced diet
rodents = conditions: intragastric preload prior to enteral glucose
obese mice = conditions: intragastric, 4 weeks
[1] = system: NCI-716 and STC-1 cells (T2R38); conditions: by interacting with T2R38
young healthy subjects = conditions: oral, encapsulated, 18 mg

With `N[C@@H](Cc1c[nH]c2ccc(O)cc12)C(=O)O` [5-hydroxytryptophan] as the compound, how does the BMI (overweight women) read?
Its BMI is “decrease”.

What about the feeling of satiety (overweight women) of the same compound?
Its feeling of satiety is “significantly increased”.

Which results are given for `CC[N+](CC)(CC(=O)Nc1c(C)cccc1C)Cc1ccccc1` [DB, denatonium benzoate]?
GLP-1 plasma levels (rodents): increase; blood glucose (rodents): reduction; gastric emptying (rodents): slowing; insulin concentration (rodents): increase; PYY secretion (NCI-H716 cells): stimulates; meal-induced GLP-1 secretion (obese mice): increase; body weight (obese mice; obese mice): reduction

Which GLP-1 secretion [1] does the source give for `COc1ccc2cc3[n+](cc2c1OC)CCc1cc2c(cc1-3)OCO2` [berberine] here?
The GLP-1 secretion was “dose-dependently stimulate”.

Which GLP-1 secretion [1] does the source give for `NC(=S)Nc1ccccc1` [phenylthiourea] here?
Its GLP-1 secretion is “dose-dependently stimulate”.

For `C=C[C@H]1C[N@@]2CC[C@H]1C[C@H]2[C@H](O)c1ccnc2ccc(OC)cc12` [quinine HCl], which CCK plasma concentrations (young healthy subjects) is on record?
Its CCK plasma concentrations is “increased”.

And the “energy intake during an ad libitum meal” value (young healthy subjects)?
The value was “reduced”.
